Results from PubChem BioAssay (NCI).
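Exposure lasted 48 hours, with cells grown in 96-well plates and compounds tested at five concentrations. GI50: concentration for 50% inhibition of growth. TGI marks complete inhibition of growth.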

Key:
Assay in all cases: NCI tumour cell line growth inhibition, 48 h
[1] = system: M14 melanoma
[2] = system: OVCAR-8 ovarian
[3] = system: HT29 colon
[4] = system: MOLT-4 leukemia
[5] = system: UO-31 renal
[6] = system: OVCAR-3 ovarian
[7] = system: SNB-75 CNS
[8] = system: SK-MEL-2 melanoma
[9] = system: NCI-H522 lung
[10] = system: OVCAR-4 ovarian
[11] = system: SR leukemia
[12] = system: NCI/ADR-RES ovarian
[13] = system: HOP-62 NSCLC
[14] = system: A549 NSCLC
[15] = system: DU-145 prostate
[16] = system: CCRF-CEM leukemia
[17] = system: TK-10 renal
[18] = system: EKVX NSCLC
[19] = system: RXF 393 renal
[20] = system: LOX IMVI melanoma
[21] = system: NCI-H23 lung
[22] = system: NCI-H460 lung
[23] = system: COLO 205 colon
[24] = system: MCF7 breast
[25] = system: ACHN renal
[26] = system: SK-OV-3 ovarian
[27] = system: NCI-H226 lung
[28] = system: KM12 colon
[29] = system: SNB-19 CNS
[30] = system: HCT-15 colon
[31] = system: UACC-62 melanoma
[32] = system: HL-60(TB) leukemia
[33] = system: SN12C renal
[34] = system: HCC-2998 colon
[35] = system: SK-MEL-5 melanoma
[36] = system: K-562 leukemia
[37] = system: IGROV1 ovarian
[38] = system: 786-0 renal
[39] = system: PC-3 prostate
[40] = system: UACC-257 melanoma
[41] = system: SF-295 CNS
[42] = system: T-47D breast
[43] = system: HOP-92 NSCLC
[44] = system: BT-549 breast
[45] = system: SK-MEL-28 melanoma
[46] = system: CAKI-1 renal
[47] = system: SF-539 CNS
[48] = system: A498 renal
[49] = system: RPMI-8226 leukemia
[50] = system: MDA-MB-435
[51] = system: SW-620 colon
[52] = system: HCT-116 colon
[53] = system: MDA-MB-231 breast
[54] = system: HS 578T breast
[55] = system: OVCAR-5 ovarian
[56] = system: SF-268 CNS

`C=C(c1ccc(C(=O)N(C)c2ccccc2N)cc1)C(C)N1C(=O)[C@H]2CCCN2C(=O)c2ccccc21` (some centres not stated) gave a GI50 [1] of 50.1 µM, a TGI [1] of over 100 µM and a GI50 [2] of 43.7 µM. For the same compound, the TGI [2] was over 100 µM, the GI50 [3] was 16.1 µM and the TGI [3] was 80.2 µM. It also gave a GI50 [4] of 24.8 µM, a TGI [4] of 97.9 µM and a GI50 [5] of 53.4 µM. It also gave a TGI [5] of over 100 µM, a GI50 [6] of 82 µM and a TGI [6] of over 100 µM. It also gave a GI50 [7] of 17.1 µM, a TGI [7] of 77.5 µM and a GI50 [8] of 99.5 µM. The TGI [8] was over 100 µM, the GI50 [9] was 17.7 µM and the TGI [9] was over 100 µM. The GI50 [10] was 2.91 µM, the TGI [10] was 41.2 µM and the GI50 [11] was 18.7 µM. For the same compound, the TGI [11] was 74.9 µM, the GI50 [12] was 20.2 µM and the TGI [12] was over 100 µM. The GI50 [13] was 31.6 µM, the TGI [13] was over 100 µM and the GI50 [14] was 68.8 µM. The TGI [14] was over 100 µM, the GI50 [15] was 33.3 µM and the TGI [15] was over 100 µM. The GI50 [16] was 27.4 µM, the TGI [16] was over 100 µM and the GI50 [17] was 45.5 µM. It also gave a TGI [17] of over 100 µM, a GI50 [18] of 80.6 µM and a TGI [18] of over 100 µM. For the same compound, the GI50 [19] was over 100 µM, the TGI [19] was over 100 µM and the GI50 [20] was 34.2 µM. The TGI [20] was over 100 µM, the GI50 [21] was 61.6 µM and the TGI [21] was over 100 µM. It also gave a GI50 [22] of 32.1 µM, a TGI [22] of over 100 µM and a GI50 [23] of 24 µM. For the same compound, the TGI [23] was over 100 µM, the GI50 [24] was 23.2 µM and the TGI [24] was over 100 µM. For the same compound, the GI50 [25] was 36.5 µM, the TGI [25] was over 100 µM and the GI50 [26] was 6.72 µM. It also gave a TGI [26] of 84.2 µM, a GI50 [27] of 63.4 µM and a TGI [27] of over 100 µM. For the same compound, the GI50 [28] was over 100 µM, the TGI [28] was over 100 µM and the GI50 [29] was over 100 µM. The TGI [29] was over 100 µM, the GI50 [30] was 46.5 µM and the TGI [30] was over 100 µM. For the same compound, the GI50 [31] was 24 µM, the TGI [31] was over 100 µM and the GI50 [32] was 20.2 µM. It also gave a TGI [32] of 80.2 µM, a GI50 [33] of 26.4 µM and a TGI [33] of over 100 µM. The GI50 [34] was 23.6 µM, the TGI [34] was over 100 µM and the GI50 [35] was 31.2 µM. For the same compound, the TGI [35] was over 100 µM, the GI50 [36] was 19.3 µM and the TGI [36] was over 100 µM. For the same compound, the GI50 [37] was 69.5 µM, the TGI [37] was over 100 µM and the GI50 [38] was 57.6 µM. For the same compound, the TGI [38] was over 100 µM, the GI50 [39] was 26.2 µM and the TGI [39] was over 100 µM. It also gave a GI50 [40] of 34.7 µM, a TGI [40] of over 100 µM and a GI50 [41] of over 100 µM. The TGI [41] was over 100 µM, the GI50 [42] was 16.5 µM and the TGI [42] was 90.5 µM. The GI50 [43] was 37.2 µM, the TGI [43] was over 100 µM and the GI50 [44] was over 100 µM. The TGI [44] was over 100 µM, the GI50 [45] was 31.2 µM and the TGI [45] was over 100 µM. The GI50 [46] was 32.8 µM, the TGI [46] was over 100 µM and the GI50 [47] was 42.3 µM. For the same compound, the TGI [47] was over 100 µM, the GI50 [48] was 19.2 µM and the TGI [48] was 67.5 µM. For the same compound, the GI50 [49] was 7.52 µM, the TGI [49] was 37.7 µM and the GI50 [50] was 38.3 µM. The TGI [50] was over 100 µM, the GI50 [51] was 38.1 µM and the TGI [51] was over 100 µM. For the same compound, the GI50 [52] was 19.8 µM, the TGI [52] was over 100 µM and the GI50 [53] was 58.5 µM. The TGI [53] was over 100 µM, the GI50 [54] was 53.1 µM and the TGI [54] was over 100 µM. For the same compound, the GI50 [55] was 11.5 µM, the TGI [55] was over 100 µM and the GI50 [56] was 25 µM. For the same compound, the TGI [56] was over 100 µM.
